Assay results published in article PMC5701137, “Discovery of novel choline acetyltransferase inhibitors using structure-based virtual screening” (Scientific Reports, 2017).

Assays:
Type in all cases: biochemical
[1] = target: T1, plasma BuChE (Homo sapiens, UniProt P06276); assay: Modified Ellman's colorimetric assay for BuChE (pooled human plasma) and kinetic studies; settings: 200 µM compound, compared to control, mean of three experiments in triplicate; for BuChE % IR (inhibition rate): 200 µM; for inhibition at 200 µM: read-out: BuChE % IR (inhibition rate)
T1 construct: 1:450 diluted solution of a pooled human plasma; from tissue; host or cells: pooled human plasma
T1 sequence (P06276 29-602): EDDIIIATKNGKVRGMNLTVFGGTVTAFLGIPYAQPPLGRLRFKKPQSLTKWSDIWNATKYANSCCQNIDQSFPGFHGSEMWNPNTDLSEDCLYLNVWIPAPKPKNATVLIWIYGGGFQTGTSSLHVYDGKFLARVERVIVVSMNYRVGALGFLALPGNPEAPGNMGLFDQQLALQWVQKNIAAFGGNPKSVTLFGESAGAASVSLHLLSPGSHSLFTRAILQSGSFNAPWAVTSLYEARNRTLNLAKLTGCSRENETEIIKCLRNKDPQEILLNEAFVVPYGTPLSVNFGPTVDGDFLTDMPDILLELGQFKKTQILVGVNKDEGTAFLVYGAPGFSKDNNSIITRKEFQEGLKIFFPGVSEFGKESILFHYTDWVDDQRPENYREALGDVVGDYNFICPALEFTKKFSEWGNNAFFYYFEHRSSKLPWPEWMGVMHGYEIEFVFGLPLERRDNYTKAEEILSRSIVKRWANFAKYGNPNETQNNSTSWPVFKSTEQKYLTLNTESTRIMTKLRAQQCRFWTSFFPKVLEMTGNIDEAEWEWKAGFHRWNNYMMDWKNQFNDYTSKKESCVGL

[2] = target: T2, human rChAT (Homo sapiens, UniProt P28329); assay: In vitro ChAT activity inhibition fluorometric assay and kinetic studies; settings: mean ± SEM of two experiments
T2 construct: made in house; host or cells: E. coli BL21 Rosetta2
T2 sequence (P28329 1-630 isoform P28329-3): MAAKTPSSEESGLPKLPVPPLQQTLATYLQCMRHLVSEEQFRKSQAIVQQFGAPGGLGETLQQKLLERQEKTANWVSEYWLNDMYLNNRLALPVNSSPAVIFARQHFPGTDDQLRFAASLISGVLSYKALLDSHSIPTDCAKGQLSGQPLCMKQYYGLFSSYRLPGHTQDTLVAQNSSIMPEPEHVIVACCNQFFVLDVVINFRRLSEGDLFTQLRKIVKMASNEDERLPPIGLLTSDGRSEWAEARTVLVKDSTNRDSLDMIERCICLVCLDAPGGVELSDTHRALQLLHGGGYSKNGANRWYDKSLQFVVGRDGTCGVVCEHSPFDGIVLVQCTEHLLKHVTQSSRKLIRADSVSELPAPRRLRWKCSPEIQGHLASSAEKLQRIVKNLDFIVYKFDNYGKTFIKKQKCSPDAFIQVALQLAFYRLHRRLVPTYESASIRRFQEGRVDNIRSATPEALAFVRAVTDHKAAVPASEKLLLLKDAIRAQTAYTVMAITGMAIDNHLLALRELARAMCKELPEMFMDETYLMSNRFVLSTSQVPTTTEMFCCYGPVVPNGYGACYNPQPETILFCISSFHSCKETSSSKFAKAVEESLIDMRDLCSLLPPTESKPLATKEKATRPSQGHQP

[3] = target: T3, recombinant human AChE (Homo sapiens, UniProt P22303); assay: Modified Ellman's colorimetric assay for AChE and kinetic studies; settings: 200 µM compound, compared to control, mean of three experiments in triplicate; for inhibition at 200 µM: read-out: AChE % IR (inhibition rate)
T3 construct: purchased Sigma C1682
T3 sequence (P22303 32-614): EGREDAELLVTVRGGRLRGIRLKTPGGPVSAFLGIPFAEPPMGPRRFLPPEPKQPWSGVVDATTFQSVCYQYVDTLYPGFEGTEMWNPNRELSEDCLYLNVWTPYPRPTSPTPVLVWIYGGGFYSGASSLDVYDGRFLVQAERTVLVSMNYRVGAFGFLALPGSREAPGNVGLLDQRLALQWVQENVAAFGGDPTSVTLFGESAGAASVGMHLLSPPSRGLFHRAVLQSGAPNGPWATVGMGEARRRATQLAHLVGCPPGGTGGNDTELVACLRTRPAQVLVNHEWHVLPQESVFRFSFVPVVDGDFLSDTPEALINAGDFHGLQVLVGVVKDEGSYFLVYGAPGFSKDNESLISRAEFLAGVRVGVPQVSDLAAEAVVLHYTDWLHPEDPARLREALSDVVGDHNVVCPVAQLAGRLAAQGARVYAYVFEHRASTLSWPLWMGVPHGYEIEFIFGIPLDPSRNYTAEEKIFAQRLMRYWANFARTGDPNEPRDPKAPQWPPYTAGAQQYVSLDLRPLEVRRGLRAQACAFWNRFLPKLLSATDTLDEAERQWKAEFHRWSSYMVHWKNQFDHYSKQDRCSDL

Row | Compound | BuChE % IR (inhibition rate) [1] [%] | inhibition at 200 µM [1] [%] | Vmax of rChAT ([2]; inhibitor 2.0 µM) [µM/min] | Vmax of rChAT ([2]; inhibitor 10.0 µM) [µM/min] | Vmax of rChAT ([2]; inhibitor 50.0 µM) [µM/min] | Vmax of rChAT ([2]; inhibitor 250.0 µM) [µM/min] | inhibition at 200 µM [3] [%] | AChE % IR (inhibition rate) ([3]; 200 µM) [%]
1 | CC(C)NC(=O)C1CCN(C(=O)c2csc(Nc3cccc4ccccc34)n2)CC1 [Compound B4] | 22.1 | 22 | 226 ± 20.9 | 150.9 ± 13.5 | 92.1 ± 19.4 | 45.5 ± 8.5 | 0 | 
2 | CC(C)c1ccc(C(=O)CSc2n[nH]c(-c3ccco3)n2)cc1 [Compound E1] | 17.2 | 17 | 265.1 ± 11.7 | 243.8 ± 22.0 | 167.8 ± 10.4 | 160.3 ± 16.8 | 12 | 12.4
